Experimental data published in patent US20250042866A1, “CRYSTAL FORM OF BLARCAMESINE HYDROCHLORIDE, METHOD FOR PREPARING SAME, AND USE THEROF” (CRYSTAL PHARMACEUTICAL (SUZHOU) CO., LTD., priority 2022, published 2025).
“Also recorded” adds a separate entry of the source.

What was measured:
Type in all cases: physicochemical
[1] = Stability upon mechanical force: tableting under different pressures; settings: XRPD
Protocol: An appropriate amount of Form CSII was compressed into tablets under different pressures with suitable tableting die. Crystalline form before and after tableting were tested by XRPD.
An appropriate amount of Form CSIII was compressed into tablets under different pressures with suitable tableting die. Crystalline form before and after tableting were tested by XRPD.

[2] = Stability upon mechanical force: ball milling; settings: XRPD
[3] = Crystalline form stability in the formulation process; settings: dry granulation simulation 5 ± 1 kN, blending, capsule filling; XRPD
[4] = Light stability (HPLC purity and XRPD form); settings: for Initial purity: before light exposure; for Purity / Solid form: light 8 k Lux, UV 1.5 w/m^2, 2 weeks; for Purity: HPLC; for Solid form: XRPD
Excerpt: An appropriate amount of Form CSIV of the present disclosure was placed in a light stability chamber with the following setting values: light: 8 k Lux, UV: 1.5 w/m^2.

[5] = Storage stability of drug substance (HPLC purity and XRPD form); settings: for chemical purity during storage: 40° C./75% RH and 60° C./75% RH
Protocol: Chemical purity and crystalline form were tested by HPLC and XRPD respectively.
Open: the sample was placed into a glass vial, and the vial was covered by aluminum foil with holes.
Sealed with desiccants: the sample was placed into a glass vial, and the vial was covered by aluminum foil with holes, then the vial was sealed into an aluminum foil bag with 1 g of silica gel desiccant.
An appropriate amount of Form CSIV of the present disclosure were stored under different conditions of 25° C./60% RH, 40° C./75% RH and 60° C./75% RH. Chemical purity and crystalline form were test by HPLC and XRPD respectively. […] Form CSIV is stable after storage under 40° C./75% RH condition for at least 6 months, indicating Form CSIV has good stability under accelerated condition. Form CSIV is stable after storage under 60° C./75% RH condition for at least 2 weeks, indicating Form CSIV has good stability under stress condition.

[6] = Compressibility: tensile strength of compressed tablets; settings: 80 mg, Φ6 mm round tooling, 3 kN, after 24 hours at room temperature; T=2H/πDL
Protocol: The samples were pressed by the ENERPAC single punch manual tablet press. […] The elastic recovery was completed after storage at room temperature for 24 hours, then the diameter (D) and thickness (L) of the tablet was measured by a caliper, and the hardness (H) was tested with a tablet hardness tester. Tensile strength of the powder was calculated with the following formula: T=2H/πDL. Under a certain force, the greater the tensile strength, the better the compressibility.

[7] = Hygroscopicity by dynamic vapor sorption (DVS); settings: 25° C., cycle 0% RH-95% RH-0% RH, about 10 mg
Protocol: DVS data in the present disclosure were measured via an SMS (Surface Measurement Systems Ltd.) intrinsic DVS instrument. The instrument control software is DVS-Intrinsic control software. Typical Parameters for DVS test are as follows: • Temperature: 25° C. • Gas and flow rate: N2, 200 mL/min • RH range: 0% RH to 95% RH
The mass change at each relative humidity were recorded in a cycle of 0% RH-95% RH-0% RH.

[8] = Flowability (compressibility index / Carr index); settings: criteria of ICH Q4B Annex 13, by compressibility index
Protocol: The bulk density ρ0 was calculated with the formula “bulk density ρ0=powder mass/volume before tapped”. […] The tapped density pf was calculated with the formula “tapped density ρf=powder mass/volume after tapped”. The degree of compression (c), also known as Compressibility index or Carr index, was calculated based on the measured bulk density and tap density of the sample with the formula c=(ρf-ρ0)/ρf*100%.
The bulk density ρ0 was calculated with the formula “bulk density ρ0=powder mass/volume before tapped”. […] The tapped density pf was calculated with the formula “tapped density ρf=powder mass/volume after tapped”. The degree of compression (c), also known as Compressibility index or Carr index, was calculated based on the measured bulk density and tap density of the sample with the formula c=(pf-ρ0)/ρf*100%.

[9] = Solubility in organic solvents, step-wise solvent addition; settings: organic solvent or mixture, thermodynamic from solid; Ethyl acetate; room temperature; as mass of Compound I
Protocol: (§1) The weight of solid (m), the undissolved volume (v1) and the dissolved volume (v2) were recorded respectively.
as §1

[10] = 5 minutes at a vibration speed of 500 rpm
[11] = 25° C./60% RH, long-term condition
[12] = 25° C./60% RH, sealed with desiccants, 9 months
[13] = 40° C./75% RH, accelerated condition
[14] = 40° C./75% RH, sealed with desiccants, 6 months
[15] = 60° C./75% RH, stress condition
[16] = 25° C./60% RH, sealed with desiccants, 6 months
[17] = 60° C./75% RH, sealed with desiccants, 2 weeks

SMILES | Crystalline form after tableting ([1]; Pressure 5 kN) | Crystalline form after tableting ([1]; Pressure 10 kN) | Crystalline form after tableting ([1]; Pressure 20 kN) | form change after ball milling [2, 10] | crystalline form before and after the formulation process [3] | Initial purity [4] | Purity [4] | Solid form [4] | time for which the drug substance is stable (crystalline state unchanged) [5, 11] | Purity ([5]; 25° C./60% RH, open, 9 months) | Purity [5, 12] | chemical purity during storage [5] | time for which the drug substance is stable (crystalline state unchanged) [5, 13] | Purity [5, 14] | Purity ([5]; Initial) | Tensile strength [6] | Mass increase under 70% RH [7] | time for which the drug substance is stable (crystalline state unchanged) [5, 15] | Flowability [8] | also measured
CN(C)CC1CCOC1(c1ccccc1)c1ccccc1.CN(C)CC1CCOC1(c1ccccc1)c1ccccc1.Cl.Cl.O=C(O)C(O)C(O)C(=O)O (centres unmarked) [Form CSII] | Form CSII | Form CSII | Form CSII | no form change | stable before and after the formulation process | 99.97% | 99.97% | remains unchanged; also recorded: Form CSII | at least 9 months | 99.90% | 99.95% | above 99.9% | at least 6 months | 99.90% | 99.96% | 0.705 MPa | 0.24% | – | – | Purity ([5]; 60° C./75% RH, sealed with desiccants, 1 month): 99.94%
CN(C)CC1CCOC1(c1ccccc1)c1ccccc1.Cl.O=C(O)CC(O)(CC(=O)O)C(=O)O (centres unmarked) [Form CSIII] | Form CSIII | Form CSIII | Form CSIII | – | stable before and after the formulation process | 99.83% | 99.76% | remains unchanged; also recorded: Form CSIII | at least 9 months | 99.91% | 99.92% | above 99% | at least 3 months | – | 99.86% | 0.707 MPa | – | at least 2 month | Fair (16-20) | form change after ball milling ([2]; vibration speed of 300 rpm): no form change; Purity ([5]; 40° C./75% RH, sealed with desiccants, 3 months): 99.91%; Purity ([5]; 60° C./75% RH, sealed with desiccants, 2 months): 99.86%
CN(C)CC1CCOC1(c1ccccc1)c1ccccc1 (centres unmarked) [Form I in the prior art, tetrahydro-N,N-dimethyl-2,2-diphenyl-3-furanmethanamine, reference compound] | – | – | – | – | – | – | – | – | – | – | – | – | – | – | – | 0.552 MPa | 0.54% | – | Poor | solubility [9]: < 1500 µg/mL
CN(C)CC1CCOC1(c1ccccc1)c1ccccc1.CN(C)CC1CCOC1(c1ccccc1)c1ccccc1.Cl.Cl.O=C(O)CC(O)C(=O)O (racemic) [Form CSIV] | – | – | – | no form change | – | 99.92% | 99.92% | remains unchanged; also recorded: Form CSIV | at least 6 months | – | – | above 99.9% | at least 6 months | 99.93% | 99.95% | 0.705 MPa | – | at least 2 weeks | Excellent (≤10) | Purity [5, 16]: 99.92%; Solid form [5, 16]: Form CSIV; Solid form [5, 14]: Form CSIV; Purity [5, 17]: 99.98%; Solid form [5, 17]: Form CSIV; Solid form ([5]; Initial): Form CSIV
